Reference: ChEMBL document CHEMBL2150995, “Identification of an Adamantyl Azaquinolone JNK Selective Inhibitor” (ACS Med Chem Lett, 2012)
Converted amounts (≈) assume the structure as drawn. Each block holds one compound with its values, some of them ahead of it. The source made the active and inactive calls. The calls are words filed in the database; no cut-off is given here.

Tests used:
[1] = Cmax in C57 mouse at 30 mg/kg, po administered as DMSO formulation; assay type: ADME, organism-based; parameters: dose 30 mg/kg, route oral; conditions: in vivo
[2] = Extrapolated AUC in C57 mouse at 5 mg/kg, iv administered as DMSO formulation; assay type: ADME, organism-based; parameters: dose 5 mg/kg, route intravenous; conditions: in vivo
[3] = Half life in rat at 5 mg/kg, iv administered as DMSO formulation; assay type: ADME, organism-based; parameters: dose 5 mg/kg, route intravenous; conditions: in vivo
[4] = Half life in C57 mouse at 5 mg/kg, iv administered as DMSO formulation; assay type: ADME, organism-based; parameters: dose 5 mg/kg, route intravenous; conditions: in vivo
[5] = Drug uptake in C57 mouse liver at 30 mg/kg, po measured at 8 hrs; assay type: ADME, organism-based; parameters: dose 30 mg/kg, route oral; conditions: read-out: Drug uptake
[6] = Extrapolated AUC in rat at 5 mg/kg, iv administered as DMSO formulation; assay type: ADME, organism-based; parameters: dose 5 mg/kg, route intravenous; conditions: in vivo
[7] = Clearance in mouse hepatocytes; assay type: ADME, cell-based, Liver, Hepatocyte
[8] = Cmax in rat at 30 mg/kg, po administered as DMSO formulation; assay type: ADME, organism-based; parameters: dose 30 mg/kg, route oral; conditions: in vivo
[9] = Mean residence time in rat at 5 mg/kg, iv administered as DMSO formulation; assay type: ADME, organism-based; parameters: dose 5 mg/kg, route intravenous; conditions: in vivo
[10] = Plasma concentration in C57 mouse at 30 mg/kg, po measured at 8 hrs; assay type: ADME, organism-based; parameters: dose 30 mg/kg, route oral
[11] = Tmax in C57 mouse at 75 mg/kg, po administered as MBP formulation; assay type: ADME, organism-based; parameters: dose 75 mg/kg, route oral; conditions: in vivo
[12] = Cmax in C57 mouse at 75 mg/kg, po administered as MBP formulation; assay type: ADME, organism-based; parameters: dose 75 mg/kg, route oral; conditions: in vivo
[13] = Volume of distribution in rat at 5 mg/kg, iv administered as DMSO formulation; assay type: ADME, organism-based; parameters: dose 5 mg/kg, route intravenous; conditions: in vivo
[14] = target: T1, Mitogen-activated protein kinase 8 (Homo sapiens, UniProt P45983); assay: Inhibition of JNK1-mediated c-jun phosphorylation in TNF-alpha stimulated human HK-2 cells after 30 mins by TR-FRET assay; assay type: cell-based
[15] = AUC (0 to 24 hrs) in C57 mouse at 5 mg/kg, iv; assay type: ADME, organism-based; parameters: time < 24 hr, dose 5 mg/kg, route intravenous; conditions: plasma
Rattus norvegicus [16] = assay: In vivo inhibition of JNK-mediated c-jun phosphorylation in Sprague-Dawley rat kidney at 75 mg/kg, po bid administered in MBP formulation 23 hrs prior TNF-alpha challenge measured 1 hr post challenge by Western blot method; assay type: functional, organism-based; parameters: dose 75 mg/kg
[17] = Tmax in C57 mouse at 30 mg/kg, po; assay type: ADME, organism-based; parameters: dose 30 mg/kg, route oral; conditions: in vivo
[18] = Cmax in C57 mouse at 30 mg/kg, po; assay type: ADME, organism-based; parameters: dose 30 mg/kg, route oral; conditions: in vivo
[19] = AUC in C57 mouse at 30 mg/kg, po; assay type: ADME, organism-based; parameters: dose 30 mg/kg, route oral; conditions: plasma
Rattus norvegicus [20] = assay: In vivo inhibition of JNK-mediated c-jun phosphorylation in Sprague-Dawley rat kidney at 75 mg/kg, po tid administered in MBP formulation 23 hrs prior TNF-alpha challenge measured 1 hr post challenge by Western blot method; assay type: functional, organism-based; parameters: dose 75 mg/kg
[21] = Tmax in C57 mouse at 30 mg/kg, po administered as DMSO formulation; assay type: ADME, organism-based; parameters: dose 30 mg/kg, route oral; conditions: in vivo
[22] = Mean residence time in C57 mouse at 5 mg/kg, iv administered as DMSO formulation; assay type: ADME, organism-based; parameters: dose 5 mg/kg, route intravenous; conditions: in vivo
[23] = Tmax in rat at 75 mg/kg, po administered as MBP formulation; assay type: ADME, organism-based; parameters: dose 75 mg/kg, route oral; conditions: in vivo
[24] = Solubility of the compound in MeOH solvate by lyophilization solubility assay; assay type: physicochemical
[25] = Clearance in C57 mouse at 5 mg/kg, iv administered as DMSO formulation; assay type: ADME, organism-based; parameters: dose 5 mg/kg, route intravenous; conditions: in vivo
[26] = Half life in rat at 75 mg/kg, po administered as MBP formulation; assay type: ADME, organism-based; parameters: dose 75 mg/kg, route oral; conditions: in vivo
[27] = Tmax in rat at 30 mg/kg, po administered as DMSO formulation; assay type: ADME, organism-based; parameters: dose 30 mg/kg, route oral; conditions: in vivo
[28] = Mean residence time in C57 mouse at 30 mg/kg, po; assay type: ADME, organism-based; parameters: dose 30 mg/kg, route oral; conditions: in vivo
[29] = Cmax in rat at 75 mg/kg, po administered as MBP formulation; assay type: ADME, organism-based; parameters: dose 75 mg/kg, route oral; conditions: in vivo
[30] = AUC in rat at 75 mg/kg, po administered as MBP formulation; assay type: ADME, organism-based; parameters: dose 75 mg/kg, route oral; conditions: plasma
[31] = target: T1, Mitogen-activated protein kinase 8; assay: Inhibition of JNK1 after 30 mins by TR-FRET assay
[32] = Drug uptake in C57 mouse kidney at 30 mg/kg, po measured at 8 hrs; assay type: ADME, organism-based; parameters: dose 30 mg/kg, route oral; conditions: read-out: Drug uptake
[33] = Clearance in mouse liver microsomes; assay type: ADME, Microsome
[34] = Clearance in rat at 5 mg/kg, iv administered as DMSO formulation; assay type: ADME, organism-based; parameters: dose 5 mg/kg, route intravenous; conditions: in vivo
[35] = AUC in C57 mouse at 75 mg/kg, po administered as MBP formulation; assay type: ADME, organism-based; parameters: dose 75 mg/kg, route oral; conditions: plasma
[36] = Half life in rat at 30 mg/kg, po administered as DMSO formulation; assay type: ADME, organism-based; parameters: dose 30 mg/kg, route oral; conditions: in vivo
[37] = AUC in C57 mouse at 30 mg/kg, po administered as DMSO formulation; assay type: ADME, organism-based; parameters: dose 30 mg/kg, route oral; conditions: plasma
[38] = Half life in C57 mouse at 75 mg/kg, po administered as MBP formulation; assay type: ADME, organism-based; parameters: dose 75 mg/kg, route oral; conditions: in vivo
[39] = Volume of distribution at steady state in C57 mouse at 5 mg/kg, iv; assay type: ADME, organism-based; parameters: dose 5 mg/kg, route intravenous; conditions: in vivo, read-out: Vdss
[40] = Clearance in C57 mouse at 5 mg/kg, iv; assay type: ADME, organism-based; parameters: dose 5 mg/kg, route intravenous; conditions: in vivo
[41] = AUC in rat at 30 mg/kg, po administered as DMSO formulation; assay type: ADME, organism-based; parameters: dose 30 mg/kg, route oral; conditions: plasma
Rattus norvegicus [42] = assay: In vivo inhibition of JNK-mediated c-jun phosphorylation in Sprague-Dawley rat assessed as phosphorylated c-jun level in kidney at 75 mg/kg, po administered as single dose in MBP formulation 7 hrs prior TNF-alpha challenge measured 1 hr post challenge by Western blot method relative to untreated control; assay type: functional
[43] = Solubility of the compound in acetonitrile/water at pH 6.5 by lyophilization solubility assay; assay type: physicochemical
[44] = Volume of distribution in C57 mouse at 5 mg/kg, iv administered as DMSO formulation; assay type: ADME, organism-based; parameters: dose 5 mg/kg, route intravenous; conditions: in vivo

T1 sequence (P45983 whole entry): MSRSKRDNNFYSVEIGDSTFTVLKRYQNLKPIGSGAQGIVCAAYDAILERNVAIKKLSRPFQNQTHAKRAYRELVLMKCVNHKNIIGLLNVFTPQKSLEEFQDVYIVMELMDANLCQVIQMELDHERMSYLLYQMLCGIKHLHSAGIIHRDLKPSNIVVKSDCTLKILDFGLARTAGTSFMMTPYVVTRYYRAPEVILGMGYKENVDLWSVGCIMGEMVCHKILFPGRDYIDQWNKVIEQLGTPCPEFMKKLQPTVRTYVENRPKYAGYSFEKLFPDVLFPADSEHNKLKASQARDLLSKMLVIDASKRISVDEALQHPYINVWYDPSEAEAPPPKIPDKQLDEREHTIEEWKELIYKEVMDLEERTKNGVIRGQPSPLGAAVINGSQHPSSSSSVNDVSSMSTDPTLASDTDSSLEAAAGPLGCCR

Compound: COC(=O)c1c(Cc2ccc(C(=O)N[C@@H]3[C@@H]4C[C@@H]5C[C@H]3C[C@@](O)(C5)C4)cc2)c(=O)c2cccnc2n1-c1ccccc1
Cmax [1]: 13600 ng/mL | AUC [2]: 9890 ng·h/mL | half-life [3]: 2.4 h | half-life [4]: 0.6 h | concentration at 8 h [5]: 2960 nM | AUC [6]: 16300 ng·h/mL | CLhep predicted [7]: 10.9 mL/min/kg | Cmax [8]: 8030 ng/mL | MRT [9]: 1.8 h | concentration at 8 h [10]: 560 nM | Tmax [11]: 1 h | Cmax [12]: 18100 ng/mL | Vd [13]: 0.61 L/kg | EC50 [14]: 4100 nM | AUC(0-t) at 24 h [15]: 9890 ng·h/mL | inhibition (Rattus norvegicus [16]): Active | Tmax [17]: 0.25 h | Cmax [18]: 13600 ng/mL | AUC [19]: 22400 ng·h/mL | inhibition (Rattus norvegicus [20]): Active | Tmax [21]: 0.25 h | MRT [22]: 0.6 h | Tmax [23]: 4 h | solubility [24]: 14 µg/mL (≈ 24.8 µM) | clearance [25]: 8.4 mL/min/kg | half-life [26]: 2 h | Tmax [27]: 4 h | MRT [28]: 2.38 h | Cmax [29]: 30100 ng/mL | AUC [30]: 252000 ng·h/mL | IC50 [31]: 12 nM | concentration at 8 h [32]: 860 nM | CLhep predicted [33]: 59 mL/min/kg | clearance [34]: 6.4 mL/min/kg | AUC [35]: 49200 ng·h/mL | half-life [36]: 2.4 h | AUC [37]: 22400 ng·h/mL | half-life [38]: 1.62 h | Vd [39]: 0.3 L/kg | clearance [40]: 8.4 mL/min/kg | AUC [41]: 48300 ng·h/mL | inhibition in vivo at 75 mg/kg (Rattus norvegicus [42]): 52% | solubility [43]: 14 µg/mL (≈ 24.8 µM) | Vd [44]: 0.3 L/kg

Compound: COC(=O)c1c(Cc2ccc(C(=O)NC3(CO)CC3)cc2)c(=O)c2cccnc2n1-c1ccccc1
concentration at 8 h [5]: 4490 nM | CLhep predicted [7]: 33.2 mL/min/kg | concentration at 8 h [10]: 380 nM | EC50 [14]: 21000 nM | Tmax [17]: 0.25 h | Cmax [18]: 4370 ng/mL | AUC [19]: 7480 ng·h/mL | MRT [28]: 1.73 h | IC50 [31]: 45 nM | concentration at 8 h [32]: 860 nM | CLhep predicted [33]: 45 mL/min/kg | solubility [43]: 138 µg/mL (≈ 285 µM)

Compound: COC(=O)c1c(Cc2ccc(C(=O)N[C@H]3[C@@H]4C[C@@H]5C[C@H]3C[C@@](O)(C5)C4)cc2)c(=O)c2cccnc2n1-c1ccccc1
EC50 [14]: 8500 nM | IC50 [31]: 47 nM | CLhep predicted [33]: 81 mL/min/kg | solubility [43]: 25 µg/mL (≈ 44.4 µM)

Compound: COC(=O)c1c(Cc2ccc(C(=O)N[C@@H]3[C@@H]4C[C@@H]5C[C@H]3C[C@@](N)(C5)C4)cc2)c(=O)c2cccnc2n1-c1ccccc1
solubility [43]: 21.9 µg/mL (≈ 38.9 µM)

Compound: COC(=O)c1c(Cc2ccc(C(=O)NCC(C)(C)O)cc2)c(=O)c2cccnc2n1-c1ccccc1
concentration at 8 h [5]: 4000 nM | concentration at 8 h [10]: 740 nM | Tmax [17]: 0.25 h | MRT [28]: 3.14 h | concentration at 8 h [32]: 1420 nM

Compound: COC(=O)c1c(Cc2ccc(C(=O)N[C@H](CO)C(C)(C)C)cc2)c(=O)c2cccnc2n1-c1ccccc1
concentration at 8 h [5]: 230 nM | concentration at 8 h [10]: 20 nM | Tmax [17]: 0.25 h | MRT [28]: 1.42 h | concentration at 8 h [32]: 30 nM

More lines, now with the values ahead:

concentration at 8 h [5]: 5570 nM | concentration at 8 h [10]: 810 nM | Tmax [17]: 0.25 h | MRT [28]: 3.45 h | concentration at 8 h [32]: 1890 nM | Vd [39]: 0.73 L/kg
Compound: COC(=O)c1c(Cc2ccc(C(=O)N[C@H]3CC[C@H](O)CC3)cc2)c(=O)c2cccnc2n1-c1ccccc1

concentration at 8 h [5]: 2490 nM | CLhep predicted [7]: 52.9 mL/min/kg | concentration at 8 h [10]: 380 nM | EC50 [14]: 9000 nM | Tmax [17]: 0.25 h | Cmax [18]: 3840 ng/mL | AUC [19]: 7010 ng·h/mL | MRT [28]: 2.03 h | IC50 [31]: 45 nM | concentration at 8 h [32]: 620 nM | CLhep predicted [33]: 58 mL/min/kg | solubility [43]: 103 µg/mL (≈ 212 µM)
Compound: COC(=O)c1c(Cc2ccc(C(=O)NC(C)(C)CO)cc2)c(=O)c2cccnc2n1-c1ccccc1

CLhep predicted [7]: 31.7 mL/min/kg | EC50 [14]: 10100 nM | IC50 [31]: 44 nM | CLhep predicted [33]: 67 mL/min/kg | solubility [43]: 4.6 µg/mL (≈ 9.37 µM)
Compound: COC(=O)c1c(Cc2ccc(C(=O)NCCO)cc2)c(=O)c2ccc(Cl)cc2n1-c1ccccc1
